Where a name gives a salt, the structure may show the parent alone. Positions of bridges follow the written chain, without caps; N, C: chain ends. Non-standard residues stand in square brackets, D forms with d. Residues, ends and D or L forms follow the SMILES beside them. *: point of attachment. Trp(7-(3-AcNH-Ph)) = CC(=O)Nc1cccc(-c2cccc3c(C[C@H](N)C(=O)O)c[nH]c23)c1; Me3N+(CH2)2O(CH2)2O(CH2)2CO = C[N+](C)(C)CCOCCOCCC(=O)*; Trp(7-Me) = Cc1cccc2c(C[C@H](N)C(=O)O)c[nH]c12; dLys(Me3) = C[N+](C)(C)CCCC[C@@H](N)C(=O)O; 3Pal(5-Me) = Cc1cncc(C[C@H](N)C(=O)O)c1; 2Nal = N[C@@H](Cc1ccc2ccccc2c1)C(=O)O; X81 = C[N+](C)(CCCC*)CC[N+]1(C)CCOCC1; AEF = NCCOc1ccc(C[C@H](N)C(=O)O)cc1; PEG6 = NCCOCCOCCOCCOCCOCCOCCC(=O)O; 3Pal = N[C@@H](Cc1cccnc1)C(=O)O; Ethyl(2-guanidino) = N=C(N)NCC*; Lys(Me) = CNCCCC[C@H](N)C(=O)O; Pen = CC(C)(S)[C@H](N)C(=O)O; Thp = NC1(C(=O)O)CCOCC1; Me2NCH2CH2 = CN(C)CC*; Tfa = O=C(C(F)(F)F)*; Sar = CNCC(=O)O

The series is described as follows: Exposed Polar Surface Area (EPSA). The series is classed as physicochemical. The note with it: SFC on Chirex 3014 column; sample 1 mM DMSO stock; read-out: EPSA. Put shortly:
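Compounds, as 1 mM DMSO stock, were injected in duplicate onto an SFC Chirex 3014 column at 35 °C and eluted with a CO2/methanol (20 mM ammonium formate) gradient. EPSA values in Å^2 were derived from retention times using a linear fit to eight calibration standards, reinjected every 20 compounds.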
In the case of `CC(=O)NCCCC[C@@H]1NC(=O)[C@H](Cc2c[nH]c3c(C)cccc23)NC(=O)[C@H]([C@@H](C)O)NC(=O)[C@H](CC(N)=O)NC(=O)[C@@H](NC(=O)[C@@H](CCCNC(=N)N)NC(=O)CCOCCOCCOCCOCCOCCOCCNC(C)=O)C(C)(C)SSC(C)(C)[C@@H](C(=O)N[C@@H](Cc2ccc(OCCN)cc2)C(=O)N[C@@H](Cc2ccc3ccccc3c2)C(=O)NC2(C(=O)N[C@@H](CCC(=O)O)C(=O)N[C@@H](CC(N)=O)C(=O)N[C@@H](Cc3cccnc3)C(=O)N(C)CC(N)=O)CCOCC2)NC1=O` [compound 37] (Ac-[PEG6][dR][Pen]NT[Trp(7-Me)]K(Ac)[Pen][AEF][2Nal][Thp]EN[3Pal][Sar]-NH2; disulfide 3-8 (inferred)), the EPSA is 174 A^2. With `CC(=O)NCCCC[C@@H]1NC(=O)[C@H](Cc2c[nH]c3c(C)cccc23)NC(=O)[C@H]([C@@H](C)O)NC(=O)[C@H](CC(N)=O)NC(=O)[C@@H](NC(=O)C(F)(F)F)C(C)(C)SSC(C)(C)[C@@H](C(=O)N[C@@H](Cc2ccc(OCCN(C)C)cc2)C(=O)N[C@@H](Cc2ccc3ccccc3c2)C(=O)NC2(C(=O)N[C@@H](CCCCNC(C)=O)C(=O)N[C@@H](CC(N)=O)C(=O)N[C@@H](Cc3cccnc3)C(=O)N(C)CC(N)=O)CCOCC2)NC1=O` [compound 53] (Tfa-[Pen]NT[Trp(7-Me)]K(Ac)[Pen]Y(Me2NCH2CH2)[2Nal][Thp]K(Ac)N[3Pal][Sar]-NH2; disulfide 1-6 (inferred)) the figure was 155 A^2; with `CC(=O)NCCCC[C@@H]1NC(=O)[C@H](Cc2c[nH]c3c(-c4cccc(NC(C)=O)c4)cccc23)NC(=O)[C@H]([C@@H](C)O)NC(=O)[C@H](CC(N)=O)NC(=O)[C@@H](NC(=O)[C@@H](CCCC[N+](C)(C)C)NC(C)=O)C(C)(C)SSC(C)(C)[C@@H](C(=O)N[C@@H](Cc2ccc(OCCNC(=N)N)cc2)C(=O)N[C@@H](Cc2ccc3ccccc3c2)C(=O)NC2(C(=O)N[C@@H](CCC(=O)O)C(=O)N[C@@H](CC(N)=O)C(=O)N[C@@H](Cc3cncc(C)c3)C(=O)N(C)CC(N)=O)CCOCC2)NC1=O` [compound 480, MeCO-k(Me)3-Pen(3)-N-T-7(3NAcPh)W-K(Ac)-Pen(3)-AEF(G)-2Nal-THP-E-N-5MePyridinAla-Sar-CONH2] (Ac-[dLys(Me3)][Pen]NT[Trp(7-(3-AcNH-Ph))]K(Ac)[Pen]Y(Ethyl(2-guanidino))[2Nal][Thp]EN[3Pal(5-Me)][Sar]-NH2; disulfide 2-7), 198 A^2.

On to `CC(=O)N(C)CCCC[C@@H]1NC(=O)[C@H](Cc2c[nH]c3c(C)cccc23)NC(=O)[C@H]([C@@H](C)O)NC(=O)[C@H](CC(=O)N(C)C)NC(=O)[C@@H](NC(=O)CCOCCOCC[N+](C)(C)C)C(C)(C)SSC(C)(C)[C@@H](C(=O)N[C@@H](Cc2ccc(OCCCC[N+](C)(C)CC[N+]3(C)CCOCC3)cc2)C(=O)N[C@@H](Cc2ccc3ccccc3c2)C(=O)NC2(C(=O)N[C@@H](CCCCN(C)C(C)=O)C(=O)N[C@@H](CC(N)=O)C(=O)N[C@@H](Cc3cccnc3)C(=O)N(C)CC(=O)N(C)C)CCOCC2)NC1=O` [compound 271, cPEG3aCO-Pen(3)-N(N(Me)2)-T-7MeW-K(NMeAc)-Pen(3)-morfTMA4F-2Nal-THP-K(NMeAc)-N-3Pya-Sar-CON(Me)2] ({Me3N+(CH2)2O(CH2)2O(CH2)2CO}-[Pen]D(NMe2)T[Trp(7-Me)][Lys(Me)](Ac)[Pen]Y(X81)[2Nal][Thp][Lys(Me)](Ac)N[3Pal][Sar]-NMe2; disulfide 1-6), for which the EPSA is 159 A^2.

Take `CC(=O)N[C@@H]1C(=O)N[C@@H](CC(N)=O)C(=O)N[C@@H]([C@@H](C)O)C(=O)N[C@@H](Cc2c[nH]c3c(C)cccc23)C(=O)N[C@@H](CCC(=O)N(C)C)C(=O)N[C@H](C(=O)N[C@@H](Cc2ccc(OCCN)cc2)C(=O)N[C@@H](Cc2ccc3ccccc3c2)C(=O)NC2(C(=O)N[C@@H](CCC(=O)N(C)C)C(=O)N[C@@H](CC(N)=O)C(=O)N[C@@H](Cc3cccnc3)C(=O)N(C)CC(N)=O)CCOCC2)C(C)(C)SSC1(C)C` [compound 138] (Ac-[Pen]NT[Trp(7-Me)]E(NMe2)[Pen][AEF][2Nal][Thp]E(NMe2)N[3Pal][Sar]-NH2; disulfide 1-6 (inferred)): the EPSA worked out at 159 A^2.

(Values after patent US20260022143A1, “Cyclic Peptide Inhibitors of IL-23” (JANSSEN PHARMACEUTICA NV, priority 2022, published 2026).)
